Consider 10 compounds from US20250243180A1, “TARGETED PROTEIN DEGRADATION” (Monte Rosa Therapeutics AG, priority 2023, published 2025).

Where two headings read alike, the source gives them in different places.

In one assay the target is NEK7 (Homo sapiens (Human), UniProt Q8TDX7+Q96SW2). In words: NEK7 NanoBiT degradation assay in Cal51 NEK7 NanoBiT cell line. It counts as cell-based. The conditions noted are these: Cal51 NEK7 NanoBiT cells, 24 hours; for Dmax: CAL-51. A digest of the protocol:
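EC50 comes from a 4-parameter fit of control-normalized luminescence. The luminescence reports HiBiT-NEK7 (endogenous knock-in) complemented by stably expressed LgBiT in Cal51 cells after 24 h compound exposure at 37 °C. Final concentrations ran 1 μM to 0.05 nM, with Endurazine substrate present in the medium throughout.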

The next assay relates to IL-1β release. Description: IL-1β release in human monocyte-derived macrophages, LPS/nigericin stimulation. It counts as cell-based. The following applies: Macrophage, 24 h pre-treatment, LPS 3 h then 10 μM nigericin 1 h, read-out: IL-1b IC50 (NIG). Here is the method:
(§1) Human monocytes were enriched and isolated from a buffy coat of healthy donor whole blood with a RosetteSep™ Human Monocyte Enrichment Cocktail (Cat.No. 15068, StemCell) and Ficoll-Plaque PLUS (Cat.No. H8889, Sigma). Monocytes were differentiated into macrophages by treatment with 100 ng/mL M-CSF for 6 days at 37° C., 5% CO2. Differentiated macrophages were seeded overnight (50,000 cells/well) in 100 µL of medium in a 96-well, white-bottom plate at 37° C., 5% CO2. Cells were treated with a concentration range of MGD for 24 hours prior to stimulation with nigericin. Macrophages were primed with […] LPS for 3 h followed by 1 h stimulation with 10 μM nigericin. Media of stimulated macrophages were collected and assayed for caspase 1 activity directly (Promega G9951), according to manufacturer's instructions. For IL-1β release assay, media of stimulated macrophages were collected and stored at −20° C., then thawed at 4° C. before assaying for IL-1β activity (Promega W6011), according to manufacturer's instructions.

A further assay concerns the target CRBN-DDB1 (Homo sapiens (Human), UniProt Q96SW2). In words: Compound binding to CRBN by HTRF assay. A digest of the protocol:
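Ki calculated via Cheng-Prusoff from geometric-mean EC50 values, after normalizing the HTRF ratio to lenalidomide (active) and DMSO (neutral) controls. Compounds (11 points, 1:3 steps) incubated 30 min at ambient temperature with CRBN-DDB1 2.5 nM, anti-His Tb cryptate and Cy5-thalidomide tracer 100 nM.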

In assay [1] the test system is Caspase-1 activity. In words: Caspase-1 activity in human monocyte-derived macrophages, LPS/nigericin stimulation. The conditions noted are these: Macrophage, 24 h pre-treatment, LPS 3 h then 10 μM nigericin 1 h, read-out: Caspase-1 IC50 (NIG). It counts as cell-based. Here is the method: as §1
Assay [2] deals with New Zealand White rabbits, MSU crystal gout model. Description: In vivo rabbit gout model (intra-articular MSU): joint swelling and CD31 staining. The following applies: daily prophylactic treatment. Here is the method:
MSU crystals were prepared by dissolving uric acid (Aladdin, cat #U105582) in boiling water (1 g in 200 mL with 6 mL of 1 N NaOH). PH value was adjusted to 7.2 by HCl. The solution was stirred and cooled to room temperature and stored at 4° C. overnight. The precipitate was filtered with filter paper and dried under low heat to obtain MSU crystals. New Zealand White rabbits received an intra-articular injection of 1 mL of MSU crystals (50 mg/mL) into both knees (MSU group) or PBS (as vehicle, control group). n=10 for MSU groups; n=6 for PBS group.
For immunohistochemistry, bone sections were stained with anti-CD31 (Abcam #ab9498) diluted at 1:500. The nuclei were stained with hematoxylin. Slides were scanned using LEICA Aperio GT450 at 400× magnification. The number of positive blood vessels were counted blindly.
(a) To determine NEK7 degradation, spleens and peripheral blood mononuclear cells (PBMC) were analyzed by JESS for NEK7 and normalized to α-Tubulin from five representative animals. (b) The degree of joint swelling was determined by caliper measurements at the indicated time points. (c) Rabbit bone tissue sections were stained and quantified for anti-CD31 immunohistochemistry. Results expressed as mean±SEM. Statistical analysis was performed using two-way ANOVA. The difference was considered significant when p<0.05.

Another assay has as its system IL-1β. In words: IL-1β in human monocyte-derived macrophages, LPS/MSU stimulation. It counts as cell-based. The following applies: 24 h pre-treatment, LPS + MSU 6 h, eight donors. Here is the method: (§2) Human monocytes were enriched and isolated from a buffy coat of whole blood with a RosetteSep™ Human Monocyte Enrichment Cocktail (Cat.No. 15068, StemCell) and Ficoll-Plaque PLUS (Cat.No. H8889, Sigma). Monocytes were differentiated into macrophages by treatment with 100 ng/mL M-CSF for 6 days at 37° C., 5% CO2. Differentiated macrophages were seeded overnight (50,000 cells/well) in 100 μL of medium in a 96-well white-bottom plate at 37° C., 5% CO2. Cells were treated with a concentration range of MGD or the NLRP3 inhibitor selnoflast (Cat.No. HY-132831, MedChemExpress) for 24 h prior to stimulation with monosodium urate crystals (MSU). Macrophages were stimulated with […] lipopolysaccharide (LPS) and 0.2 mg/mL MSU for 6 h. Medium of stimulated macrophages were collected and assayed for caspase-1 activity directly (Promega G9951) as well as IL-1β (Promega W6010), according to manufacturer's instructions.
(§3) (a, b) Human monocyte-derived macrophages pre-treated with a dose-response of Compound 14 or selnoflast (NLRP3 inhibitor) for 24 h and stimulated with a combination of lipopolysaccharide (LPS) and monosodium urate crystals (MSU) for 6 h prior to supernatant collection. Monocytes were isolated from eight human donors. Caspase-1 (a) and IL-1β (b) in the supernatant are measured and data are expressed as percentage relative to mean values of DMSO conditions for each donor (technical triplicates). Means of eight donors are plotted and analyzed using a four-parameter logistic regression model.

The test system of assay [3] is Caspase-1 activity. In words: Caspase-1 activity in human monocyte-derived macrophages, LPS/MSU stimulation. It counts as cell-based. The following applies: 24 h pre-treatment, LPS + MSU 6 h, eight donors. Here is the method: as §2, §3
[4] abbreviates: NEK7 degradation, read-out: NanoBiT Dmax.
Where [5] appears, read: NEK7 degradation, read-out: NanoBiT DC50.

Sequence of CRBN-DDB1 (Q96SW2 whole entry): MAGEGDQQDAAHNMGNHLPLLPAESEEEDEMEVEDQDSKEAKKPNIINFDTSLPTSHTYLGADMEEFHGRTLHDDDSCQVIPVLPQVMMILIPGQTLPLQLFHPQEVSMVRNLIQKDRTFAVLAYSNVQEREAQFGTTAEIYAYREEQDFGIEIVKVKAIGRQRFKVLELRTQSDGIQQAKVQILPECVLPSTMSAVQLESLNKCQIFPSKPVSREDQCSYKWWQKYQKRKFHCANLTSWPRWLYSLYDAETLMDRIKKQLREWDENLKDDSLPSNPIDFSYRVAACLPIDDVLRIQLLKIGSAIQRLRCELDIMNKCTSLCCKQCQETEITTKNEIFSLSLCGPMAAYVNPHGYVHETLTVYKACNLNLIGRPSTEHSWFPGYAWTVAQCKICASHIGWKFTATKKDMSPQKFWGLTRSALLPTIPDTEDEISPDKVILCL
Sequence of CRBN-DDB1 (Q16531 whole entry partner): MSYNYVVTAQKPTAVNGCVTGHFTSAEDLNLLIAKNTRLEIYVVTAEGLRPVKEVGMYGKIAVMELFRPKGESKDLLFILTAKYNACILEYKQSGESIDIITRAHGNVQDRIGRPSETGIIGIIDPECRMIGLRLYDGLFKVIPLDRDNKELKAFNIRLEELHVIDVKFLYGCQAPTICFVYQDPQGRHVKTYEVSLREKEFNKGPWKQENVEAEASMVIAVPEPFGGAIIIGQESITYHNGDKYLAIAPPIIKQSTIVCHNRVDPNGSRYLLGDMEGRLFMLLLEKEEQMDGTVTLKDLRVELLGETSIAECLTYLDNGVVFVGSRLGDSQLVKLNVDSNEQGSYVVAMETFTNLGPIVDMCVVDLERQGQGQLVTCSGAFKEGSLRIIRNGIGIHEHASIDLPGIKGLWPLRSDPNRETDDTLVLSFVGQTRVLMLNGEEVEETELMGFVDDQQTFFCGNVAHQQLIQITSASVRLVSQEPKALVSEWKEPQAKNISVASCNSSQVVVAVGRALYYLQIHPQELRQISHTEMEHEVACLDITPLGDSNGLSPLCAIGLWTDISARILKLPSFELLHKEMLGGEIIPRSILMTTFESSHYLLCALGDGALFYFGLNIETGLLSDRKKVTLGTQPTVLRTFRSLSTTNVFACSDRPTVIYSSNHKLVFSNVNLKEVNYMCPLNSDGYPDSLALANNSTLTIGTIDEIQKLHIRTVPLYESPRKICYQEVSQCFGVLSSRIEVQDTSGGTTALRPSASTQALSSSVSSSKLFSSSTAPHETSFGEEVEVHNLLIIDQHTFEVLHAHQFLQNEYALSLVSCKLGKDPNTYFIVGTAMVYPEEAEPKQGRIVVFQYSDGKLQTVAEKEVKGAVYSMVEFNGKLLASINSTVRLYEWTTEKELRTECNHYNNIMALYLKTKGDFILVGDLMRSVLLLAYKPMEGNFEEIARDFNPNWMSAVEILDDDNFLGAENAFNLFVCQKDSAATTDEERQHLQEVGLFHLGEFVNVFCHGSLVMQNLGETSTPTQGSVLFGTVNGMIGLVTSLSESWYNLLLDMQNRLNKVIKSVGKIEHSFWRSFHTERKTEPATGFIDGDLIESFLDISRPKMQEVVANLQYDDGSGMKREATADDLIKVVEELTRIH
Sequence of NEK7 (Q8TDX7 whole entry): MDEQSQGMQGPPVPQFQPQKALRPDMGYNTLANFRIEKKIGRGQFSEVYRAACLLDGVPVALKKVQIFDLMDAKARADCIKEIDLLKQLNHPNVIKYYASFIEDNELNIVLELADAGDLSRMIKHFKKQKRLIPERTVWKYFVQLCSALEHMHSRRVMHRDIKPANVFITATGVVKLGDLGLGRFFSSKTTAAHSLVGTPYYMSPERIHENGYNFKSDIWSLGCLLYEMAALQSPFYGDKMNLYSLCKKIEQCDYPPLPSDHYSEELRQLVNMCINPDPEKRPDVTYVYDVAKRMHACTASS
Sequence of NEK7 (Q96SW2 whole entry): as the sequence (Q96SW2 whole entry) above
Sequence of NEK7 (Q16531 2-1140 partner): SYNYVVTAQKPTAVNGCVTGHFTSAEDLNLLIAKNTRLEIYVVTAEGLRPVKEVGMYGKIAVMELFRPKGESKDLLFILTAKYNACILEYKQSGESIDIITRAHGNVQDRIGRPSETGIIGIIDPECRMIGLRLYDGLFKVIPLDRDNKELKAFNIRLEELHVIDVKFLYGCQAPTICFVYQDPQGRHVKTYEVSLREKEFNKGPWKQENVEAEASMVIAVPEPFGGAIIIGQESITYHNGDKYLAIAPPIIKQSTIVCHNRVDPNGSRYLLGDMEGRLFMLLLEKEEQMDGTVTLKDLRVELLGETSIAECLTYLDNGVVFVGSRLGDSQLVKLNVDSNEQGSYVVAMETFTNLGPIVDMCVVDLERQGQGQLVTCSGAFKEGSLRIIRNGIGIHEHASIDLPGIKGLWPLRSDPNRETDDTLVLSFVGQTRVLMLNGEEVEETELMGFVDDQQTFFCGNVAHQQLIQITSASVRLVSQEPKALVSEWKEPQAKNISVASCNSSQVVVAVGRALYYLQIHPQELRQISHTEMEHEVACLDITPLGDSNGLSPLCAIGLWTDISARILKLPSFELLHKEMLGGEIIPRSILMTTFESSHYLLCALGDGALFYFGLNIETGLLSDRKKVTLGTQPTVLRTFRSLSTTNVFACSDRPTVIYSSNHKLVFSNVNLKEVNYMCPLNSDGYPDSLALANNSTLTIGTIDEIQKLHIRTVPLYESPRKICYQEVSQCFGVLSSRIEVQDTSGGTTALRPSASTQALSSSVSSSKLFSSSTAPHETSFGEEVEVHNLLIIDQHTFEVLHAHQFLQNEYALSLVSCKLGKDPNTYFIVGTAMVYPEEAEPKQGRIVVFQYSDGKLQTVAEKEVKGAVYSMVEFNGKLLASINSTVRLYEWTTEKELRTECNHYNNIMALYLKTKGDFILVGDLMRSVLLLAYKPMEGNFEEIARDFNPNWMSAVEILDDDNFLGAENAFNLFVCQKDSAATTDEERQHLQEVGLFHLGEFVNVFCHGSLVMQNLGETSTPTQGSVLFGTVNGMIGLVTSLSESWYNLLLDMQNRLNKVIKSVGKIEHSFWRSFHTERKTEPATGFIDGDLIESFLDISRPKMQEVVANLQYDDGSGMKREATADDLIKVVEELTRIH

For the compound `CC(C)(C(=O)NCc1cc(Cl)c(C2CCC(=O)NC2=O)c(Cl)c1)c1ccnc(C(F)(F)F)c1` (stereo not drawn) [Compound 97], the Dmax is 76% on NEK7 (read-out: NEK7 NanoBiT Dmax) and > 75% at NEK7 (setting [4]). Also, the DC50 is 50 nM on NEK7 (read-out: NEK7 NanoBiT DC50) and ≤ 100 nM on NEK7 (setting [5]). In addition, the results for the IC50 with IL-1β release and in the assay with Caspase-1 activity [1] were 5.23 nM and 5.84 nM, respectively. Further, the EC50 at CRBN-DDB1 is 170 nM; at CRBN-DDB1 (HTRF class, Cereblon binding) it was 100 to 1000 nM.

As to `CC(C)(C(=O)NCc1cc(Cl)c(C2CCC(=O)NC2=O)c(Cl)c1)c1ccc(F)cc1` (stereo not drawn) [Compound 96], the Dmax at NEK7 (read-out: NEK7 NanoBiT Dmax) was 97%; at NEK7 (setting [4]), > 75%. The figures for the DC50 on NEK7 (read-out: NEK7 NanoBiT DC50) and at NEK7 (setting [5]) were 1 nM and ≤ 100 nM, respectively. The IC50 in the assay with IL-1β release turned out to be 0.2 nM; with Caspase-1 activity [1] it was 0.13 nM. Also, the EC50 at CRBN-DDB1 is 80 nM; on CRBN-DDB1 (HTRF class, Cereblon binding), ≤ 100 nM.

Turning to `CC(C)(C(=O)NCc1cc(Cl)c(C2CCC(=O)NC2=O)c(Cl)c1)c1ncccn1` (stereo not drawn) [Compound 34], the Dmax on NEK7 (read-out: NEK7 NanoBiT Dmax) is 78%; at NEK7 (setting [4]), > 75%. Moreover, the DC50 on NEK7 (read-out: NEK7 NanoBiT DC50) is 28 nM; on NEK7 (setting [5]), ≤ 100 nM. Also, the half-maximal inhibitory concentration (IC50) in the assay on IL-1β release came to 7.36 nM; in the assay with Caspase-1 activity [1] it was 7.25 nM. Moreover, the EC50 was 140 nM on CRBN-DDB1 and 100 to 1000 nM at CRBN-DDB1 (HTRF class, Cereblon binding).

Take `CC(C)(C(=O)NCc1cc(Cl)c(C2CCC(=O)NC2=O)c(Cl)c1)c1ccc(C2CC2)nn1` (stereo not drawn) [Compound 192]: the Dmax at NEK7 (read-out: NEK7 NanoBiT Dmax) is 92%; on NEK7 (setting [4]), > 75%. For the same compound, the DC50 on NEK7 (read-out: NEK7 NanoBiT DC50) was 5 nM; at NEK7 (setting [5]) it was ≤ 100 nM. The IC50 in the assay with IL-1β release was determined as 0.94 nM; in the assay with Caspase-1 activity [1] it was 0.75 nM. Moreover, the EC50 is 90 nM at CRBN-DDB1 and ≤ 100 nM on CRBN-DDB1 (HTRF class, Cereblon binding).

For `Cc1cnc(C(C)(C)C(=O)NCc2cc(Cl)c(C3CCC(=O)NC3=O)c(Cl)c2)cn1` (stereo not drawn) [Compound 162], the Dmax on NEK7 (read-out: NEK7 NanoBiT Dmax) is 86%; on NEK7 (setting [4]), > 75%. The results for the DC50 at NEK7 (read-out: NEK7 NanoBiT DC50) and at NEK7 (setting [5]) were 13 nM and ≤ 100 nM, respectively. Besides, the IC50 was 2.03 nM with IL-1β release and 1.66 nM in the assay with Caspase-1 activity [1]. Also, the EC50 at CRBN-DDB1 is 290 nM; at CRBN-DDB1 (HTRF class, Cereblon binding), 100 to 1000 nM.

In the case of `CC(C)(C(=O)NCc1cc(Cl)c(C2CCC(=O)NC2=O)c(Cl)c1)c1ccncc1` (stereo not drawn) [Compound 108], the figures for the Dmax on NEK7 (read-out: NEK7 NanoBiT Dmax) and at NEK7 (setting [4]) were 92% and > 75%, respectively. For the same compound, the half-maximal degradation concentration (DC50) on NEK7 (read-out: NEK7 NanoBiT DC50) is 3 nM; at NEK7 (setting [5]), ≤ 100 nM. Further, the results for the IC50 in the assay on IL-1β release and with Caspase-1 activity [1] were 0.41 nM and 0.54 nM, respectively. Further, the EC50 at CRBN-DDB1 was 80 nM; on CRBN-DDB1 (HTRF class, Cereblon binding), ≤ 100 nM.

Consider `C[C@]12C=CC(=O)C=C1CC[C@@H]1[C@@H]2[C@@H](O)C[C@@]2(C)[C@H]1CC[C@]2(O)C(=O)CO` [prednisolone], for which, in assay [2], the “CD31 staining in bone tissue” value is “improvement” and the “joint swelling induced by intra-articular MSU injection” value was “improvement”.

As for `CCN1CCC(S(=O)(=O)NC(=O)Nc2c3c(cc4c2CCC4)CCC3)CC1` [selnoflast, reference compound], in assay [2], the “CD31 staining in bone tissue” value is recorded as “improvement” and the “joint swelling induced by intra-articular MSU injection” value is on record as “improvement”. For the same compound, the “IL-1β Imax” value in the assay with IL-1β amounted to 79%. Moreover, the IC50 in the assay on IL-1β (Homo sapiens, Macrophage) was 746 nM. For the same compound, in the assay on Caspase-1 activity [3], the “Caspase-1 activity Imax” value amounted to 89%. The IC50 in the assay on Caspase-1 activity [3] (Homo sapiens, Macrophage) worked out at 843 nM.

For the compound `Cc1nnc(C(C)(C)C(=O)NCc2cc(Cl)c(C3CCC(=O)NC3=O)c(Cl)c2)o1` (stereo not drawn) [Compound 110], the figures for the Dmax at NEK7 (read-out: NEK7 NanoBiT Dmax) and on NEK7 (setting [4]) were 76% and > 75%, respectively. Also, the DC50 on NEK7 (read-out: NEK7 NanoBiT DC50) is 50 nM; on NEK7 (setting [5]), ≤ 100 nM. In addition, the IC50 in the assay with IL-1β release was 9.87 nM; with Caspase-1 activity [1], 11.2 nM. Besides, the EC50 is 320 nM at CRBN-DDB1 and 100 to 1000 nM at CRBN-DDB1 (HTRF class, Cereblon binding).

For the compound `CC(C)(C(=O)NCc1cc(Cl)c(C2CCC(=O)NC2=O)c(Cl)c1)c1ccnc(F)c1` (stereo not drawn) [Compound 93], the Dmax at NEK7 (read-out: NEK7 NanoBiT Dmax) is 92%; on NEK7 (setting [4]), > 75%. Also, the DC50 on NEK7 (read-out: NEK7 NanoBiT DC50) was 4 nM; on NEK7 (setting [5]), ≤ 100 nM. Further, the IC50 turned out to be 0.9 nM with IL-1β release and 0.45 nM in the assay with Caspase-1 activity [1]. The EC50 at CRBN-DDB1 was 70 nM; on CRBN-DDB1 (HTRF class, Cereblon binding), ≤ 100 nM.
